Drawing on ChEMBL document CHEMBL5465560, “Selectivity Literature for EUbOPEN Chemogenomic Library” (2024), this text covers % of control and % of inhibition for eight compounds.

For test [1], the target named is T1, Aurora kinase A (Homo sapiens) (UniProt O14965).
T1 sequence (whole entry): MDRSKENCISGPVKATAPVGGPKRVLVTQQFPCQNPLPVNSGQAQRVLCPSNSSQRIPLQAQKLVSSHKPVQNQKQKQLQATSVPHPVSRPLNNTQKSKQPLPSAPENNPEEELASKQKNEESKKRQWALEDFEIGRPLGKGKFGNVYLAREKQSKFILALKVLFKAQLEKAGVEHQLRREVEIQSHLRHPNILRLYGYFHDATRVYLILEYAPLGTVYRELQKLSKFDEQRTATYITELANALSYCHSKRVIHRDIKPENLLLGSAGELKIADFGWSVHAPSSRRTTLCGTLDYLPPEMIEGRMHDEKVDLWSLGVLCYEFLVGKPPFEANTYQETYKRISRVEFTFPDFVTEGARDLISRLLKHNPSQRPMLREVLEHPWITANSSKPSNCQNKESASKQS
Kind of test: Selectivity interaction (KinomeScan (DiscoverX)) EUB0001619a STK6. The following applies: at 1 µM.

For test [2], the target named is Homeodomain-interacting protein kinase 1 (Homo sapiens, UniProt Q86Z02). Put plainly: Selectivity interaction (KinomeScan (DiscoverX)) EUB0000695a HIPK1. The following applies: at 100 nM.
Sequence of Homeodomain-interacting protein kinase 1 (Q86Z02 whole entry, looked up): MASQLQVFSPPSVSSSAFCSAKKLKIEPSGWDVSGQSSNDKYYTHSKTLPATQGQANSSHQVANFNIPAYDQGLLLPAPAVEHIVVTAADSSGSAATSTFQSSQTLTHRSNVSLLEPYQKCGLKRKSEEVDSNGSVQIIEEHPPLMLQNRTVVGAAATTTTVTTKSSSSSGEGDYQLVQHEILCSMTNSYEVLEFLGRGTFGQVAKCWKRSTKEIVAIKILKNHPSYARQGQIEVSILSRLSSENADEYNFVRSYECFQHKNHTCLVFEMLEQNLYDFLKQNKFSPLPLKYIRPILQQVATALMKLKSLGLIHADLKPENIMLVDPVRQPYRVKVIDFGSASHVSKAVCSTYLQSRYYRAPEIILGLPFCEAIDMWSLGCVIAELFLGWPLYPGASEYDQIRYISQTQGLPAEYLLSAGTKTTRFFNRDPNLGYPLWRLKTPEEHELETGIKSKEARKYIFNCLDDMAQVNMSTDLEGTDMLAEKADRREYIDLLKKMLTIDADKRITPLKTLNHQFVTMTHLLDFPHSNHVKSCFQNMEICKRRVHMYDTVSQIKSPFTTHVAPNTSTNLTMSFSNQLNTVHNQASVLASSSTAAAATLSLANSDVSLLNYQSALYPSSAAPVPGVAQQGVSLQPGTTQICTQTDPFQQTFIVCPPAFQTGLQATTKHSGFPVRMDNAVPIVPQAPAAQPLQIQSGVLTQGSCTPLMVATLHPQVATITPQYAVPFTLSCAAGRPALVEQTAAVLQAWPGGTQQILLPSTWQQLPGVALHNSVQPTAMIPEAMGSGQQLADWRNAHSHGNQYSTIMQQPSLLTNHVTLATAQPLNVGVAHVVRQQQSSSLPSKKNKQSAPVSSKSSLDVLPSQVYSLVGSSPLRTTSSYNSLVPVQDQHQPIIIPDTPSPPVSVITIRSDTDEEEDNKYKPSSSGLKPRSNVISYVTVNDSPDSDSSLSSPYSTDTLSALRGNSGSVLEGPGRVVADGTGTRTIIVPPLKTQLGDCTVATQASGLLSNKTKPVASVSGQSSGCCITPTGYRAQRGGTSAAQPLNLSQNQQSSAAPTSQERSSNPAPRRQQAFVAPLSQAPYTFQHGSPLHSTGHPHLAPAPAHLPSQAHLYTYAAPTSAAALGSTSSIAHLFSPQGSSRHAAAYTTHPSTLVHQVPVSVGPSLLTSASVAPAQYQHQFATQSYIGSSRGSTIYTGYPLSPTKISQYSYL
The target in test [3] is Serine/threonine-protein kinase Nek7 (Homo sapiens) (UniProt Q8TDX7). Kind of test: Selectivity interaction (KinomeScan (DiscoverX)) EUB0000666a NEK7. The following applies: at 10 µM.
Sequence of Serine/threonine-protein kinase Nek7 (Homo sapiens) (Q8TDX7 whole entry, looked up): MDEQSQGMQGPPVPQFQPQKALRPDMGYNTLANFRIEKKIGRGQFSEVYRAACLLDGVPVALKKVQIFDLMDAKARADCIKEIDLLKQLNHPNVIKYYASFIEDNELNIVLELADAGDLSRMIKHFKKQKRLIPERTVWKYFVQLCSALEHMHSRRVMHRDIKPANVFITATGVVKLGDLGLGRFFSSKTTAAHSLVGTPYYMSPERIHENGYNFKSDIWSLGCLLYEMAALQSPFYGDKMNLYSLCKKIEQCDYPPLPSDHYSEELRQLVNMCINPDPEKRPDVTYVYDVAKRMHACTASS
In test [4] the target is T2, Serine/threonine-protein kinase ICK (Homo sapiens) (UniProt Q9UPZ9).
T2 sequence (whole entry): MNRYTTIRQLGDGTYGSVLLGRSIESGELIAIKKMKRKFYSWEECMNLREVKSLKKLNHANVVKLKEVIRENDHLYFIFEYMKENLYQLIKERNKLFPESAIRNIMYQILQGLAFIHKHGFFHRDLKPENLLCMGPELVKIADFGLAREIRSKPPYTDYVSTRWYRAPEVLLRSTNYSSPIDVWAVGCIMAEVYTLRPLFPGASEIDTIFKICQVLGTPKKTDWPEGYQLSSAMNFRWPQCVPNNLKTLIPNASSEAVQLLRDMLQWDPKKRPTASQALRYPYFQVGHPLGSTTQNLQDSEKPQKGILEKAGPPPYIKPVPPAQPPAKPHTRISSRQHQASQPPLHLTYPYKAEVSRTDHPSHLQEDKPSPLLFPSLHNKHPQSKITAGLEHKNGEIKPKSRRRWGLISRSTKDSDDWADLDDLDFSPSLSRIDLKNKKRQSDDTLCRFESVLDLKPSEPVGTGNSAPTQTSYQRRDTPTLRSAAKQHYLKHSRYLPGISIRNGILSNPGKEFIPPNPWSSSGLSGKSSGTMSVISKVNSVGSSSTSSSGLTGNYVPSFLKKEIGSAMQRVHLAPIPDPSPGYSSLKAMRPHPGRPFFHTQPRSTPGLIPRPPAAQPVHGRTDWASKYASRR
Put plainly: Selectivity interaction (KinomeScan (DiscoverX)) EUB0000607a ICK. The following applies: at 10 µM.

In test [5] the target is Calcium/calmodulin-dependent protein kinase type II subunit beta (Homo sapiens) (UniProt Q13554). Kind of test: Selectivity interaction (ActivX KiNativ screen (kinase selectivity in THP-1 cell lysates)) EUB0000639a CAMK2B. The format is subcellular. The settings on record: lysate, at 0.01 µM.
Sequence of Calcium/calmodulin-dependent protein kinase type II subunit beta (Homo sapiens) (Q13554 whole entry): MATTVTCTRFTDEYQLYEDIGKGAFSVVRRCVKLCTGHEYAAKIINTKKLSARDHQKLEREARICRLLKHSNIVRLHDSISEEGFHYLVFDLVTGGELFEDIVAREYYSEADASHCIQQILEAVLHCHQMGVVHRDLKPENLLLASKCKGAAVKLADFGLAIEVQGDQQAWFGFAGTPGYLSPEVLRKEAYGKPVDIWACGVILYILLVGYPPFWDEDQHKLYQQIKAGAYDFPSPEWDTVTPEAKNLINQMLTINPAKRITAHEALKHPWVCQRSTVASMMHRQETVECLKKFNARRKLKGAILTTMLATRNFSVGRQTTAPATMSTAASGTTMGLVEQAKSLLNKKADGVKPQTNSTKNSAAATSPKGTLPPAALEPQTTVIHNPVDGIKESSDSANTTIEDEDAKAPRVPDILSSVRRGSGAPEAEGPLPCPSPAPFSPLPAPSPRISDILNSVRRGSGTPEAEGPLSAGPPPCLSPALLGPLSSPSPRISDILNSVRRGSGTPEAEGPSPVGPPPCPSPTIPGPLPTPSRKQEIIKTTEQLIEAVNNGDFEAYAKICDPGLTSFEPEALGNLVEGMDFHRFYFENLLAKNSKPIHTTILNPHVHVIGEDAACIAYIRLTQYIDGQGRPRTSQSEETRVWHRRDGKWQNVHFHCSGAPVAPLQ
Test [6] deals with Mitogen-activated protein kinase kinase kinase kinase 1 (Homo sapiens) (UniProt Q92918). Kind of test: Selectivity interaction (ActivX KiNativ screen (kinase selectivity in THP-1 cell lysates)) EUB0000639a MAP4K1. The following applies: lysate, at 0.04 µM. The format is subcellular.
Sequence of Mitogen-activated protein kinase kinase kinase kinase 1 (Homo sapiens) (Q92918 whole entry, looked up): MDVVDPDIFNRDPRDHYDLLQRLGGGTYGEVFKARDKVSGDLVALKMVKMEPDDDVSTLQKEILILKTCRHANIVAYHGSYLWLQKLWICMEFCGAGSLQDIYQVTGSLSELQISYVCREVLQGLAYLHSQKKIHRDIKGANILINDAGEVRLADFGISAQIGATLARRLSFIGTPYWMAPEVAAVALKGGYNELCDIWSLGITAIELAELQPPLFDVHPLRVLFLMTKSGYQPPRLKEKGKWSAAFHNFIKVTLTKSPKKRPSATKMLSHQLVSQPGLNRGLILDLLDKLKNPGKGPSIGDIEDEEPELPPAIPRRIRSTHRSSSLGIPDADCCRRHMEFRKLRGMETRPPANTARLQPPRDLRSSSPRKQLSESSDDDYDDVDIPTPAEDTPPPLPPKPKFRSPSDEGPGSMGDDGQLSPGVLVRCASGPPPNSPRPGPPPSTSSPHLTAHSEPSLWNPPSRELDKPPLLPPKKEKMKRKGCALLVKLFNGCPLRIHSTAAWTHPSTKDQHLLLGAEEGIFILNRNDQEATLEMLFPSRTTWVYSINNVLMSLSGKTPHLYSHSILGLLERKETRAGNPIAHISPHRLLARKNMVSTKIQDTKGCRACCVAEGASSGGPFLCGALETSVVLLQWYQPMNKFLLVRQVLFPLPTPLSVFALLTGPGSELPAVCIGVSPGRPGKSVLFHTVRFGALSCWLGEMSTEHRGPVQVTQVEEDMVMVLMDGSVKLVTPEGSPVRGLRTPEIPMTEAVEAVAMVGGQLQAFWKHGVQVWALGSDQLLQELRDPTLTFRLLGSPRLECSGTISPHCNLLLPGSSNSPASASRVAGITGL
Test [7] has as its target T3, Serine/threonine-protein kinase 3 (Homo sapiens) (UniProt Q13188).
T3 sequence (whole entry): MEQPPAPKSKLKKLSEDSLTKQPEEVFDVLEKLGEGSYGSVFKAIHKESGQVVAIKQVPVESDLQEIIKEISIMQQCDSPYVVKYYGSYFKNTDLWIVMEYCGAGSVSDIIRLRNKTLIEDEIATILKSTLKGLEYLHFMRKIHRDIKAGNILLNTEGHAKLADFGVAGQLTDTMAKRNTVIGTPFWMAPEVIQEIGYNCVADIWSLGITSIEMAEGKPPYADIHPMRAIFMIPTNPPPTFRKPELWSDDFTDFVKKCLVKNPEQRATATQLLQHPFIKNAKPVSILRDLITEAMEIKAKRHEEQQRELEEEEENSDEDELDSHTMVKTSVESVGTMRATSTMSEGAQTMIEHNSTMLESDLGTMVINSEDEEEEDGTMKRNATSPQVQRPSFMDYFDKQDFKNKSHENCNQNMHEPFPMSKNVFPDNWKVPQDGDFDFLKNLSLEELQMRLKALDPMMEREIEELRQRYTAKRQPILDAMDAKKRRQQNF
Put plainly: Selectivity interaction (Ambit KINOMEscan and KiNATiv profiling in Jurkat cells) EUB0000090b STK3. The format is cell-based. The settings on record: at 1 µM.

Test [8] deals with cAMP-dependent protein kinase catalytic subunit beta (Homo sapiens) (UniProt P22694). Kind of test: Selectivity interaction (KinomeScan (DiscoverX)) EUB0001049a PRKACB. The settings on record: at 1 µM.
For test [9], the target named is Casein kinase I isoform delta (Homo sapiens, UniProt P48730). Kind of test: Selectivity interaction (Upstate Kinase Profiler service (Millipore)) EUB0000056c CSNK1D. The following applies: at 1 µM.
Sequence of Casein kinase I isoform delta (P48730 whole entry, looked up, canonical isoform): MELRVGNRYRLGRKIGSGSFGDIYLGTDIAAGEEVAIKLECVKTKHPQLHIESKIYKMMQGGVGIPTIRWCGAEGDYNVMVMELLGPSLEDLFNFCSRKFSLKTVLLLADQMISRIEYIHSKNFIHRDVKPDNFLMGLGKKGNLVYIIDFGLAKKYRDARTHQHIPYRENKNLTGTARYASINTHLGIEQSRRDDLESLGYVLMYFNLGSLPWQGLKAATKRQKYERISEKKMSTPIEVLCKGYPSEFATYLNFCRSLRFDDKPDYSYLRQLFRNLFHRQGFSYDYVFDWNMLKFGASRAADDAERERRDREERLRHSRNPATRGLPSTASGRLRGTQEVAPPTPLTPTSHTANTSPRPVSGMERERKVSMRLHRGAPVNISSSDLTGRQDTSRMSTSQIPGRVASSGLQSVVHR

The compound `N#Cc1cccc(-c2c[nH]c3ncnc(N4CCOCC4)c23)c1` showed a % of control in test [1] of 57%.

Take `Cc1cc(F)c(C(=O)Nc2cccc(-c3nncn3C(C)C)n2)cc1-n1cnc(C2CC2)c1`: the % of control in [2] was 100%.

In test [3], `O=C(NOC[C@H](O)CO)c1ccc(F)c(F)c1Nc1ccc(I)cc1F` displayed a % of control of 95%.

As for `CNC(=O)Nc1ccc(-c2nc(N3CC4CCC(C3)O4)c3cnn(C4CCC5(CC4)OCCO5)c3n2)cc1`, the % of control in test [4] came to 87%.

As to `CC[C@@H]1[C@H](F)C(=O)N[C@@H]1COc1nccc2cc(C(N)=O)c(OC)cc12` [ZIMLOVISERTIB], the % of inhibition in test [5] is 1.4%; in [6] it was -4.8%.

Compound `CN(C)C/C=C/C(=O)Nc1ccc(C(=O)N2CCCC(Nc3ncc(Cl)c(-c4c[nH]c5ccccc45)n3)C2)cc1` (centres undefined) came in with a % of control in test [7] of 92%.

For the compound `COc1cc(Nc2nc(C)cc(-c3cnn4nc(OC)ccc34)n2)cc(C(F)(F)F)c1`, in test [8], the % of control stood at 100%.

As to `Cc1ccc(-c2ccc3c(ccc4sc5c(c43)NC[C@@H](C)NC5=O)n2)cn1`, the % of inhibition in test [9] was -6%.
